Test results published in patent EP2027081B1, “THERAPEUTIC PROSTAGLANDIN COMPOUNDS FOR THE TREATMENT OF GLAUCOMA” (ALLERGAN, INC., priority 2006, dated 2007).
Like-named read-outs stand apart in the source and are kept apart here.

Tests used:
human EP2 receptors = target: T1, human EP2 receptors (Homo sapiens, UniProt P43116); assay: Competition binding, [3H]PGE2, HEK 293 cells stably expressing human EP2 receptors
T1 construct: expressed in transfected cells; host or cells: HEK 293
Procedure: Competition binding experiments were performed in a medium containing Hank's balanced salt solution, Hepes 20 mM, pH 7.3, membranes (∼60 µg protein) or 2x10^5 cells from HEK 293 cells stably expressing human EP2 receptors, [^3H]PGE2 (10 nM) and various concentrations of test compounds in a total volume of 300 µl. Reaction mixtures were incubated at 23 °C for 60 min, and were filtered over Whatman GF/B filters under vacuum. Filters were washed three times with 5 ml ice-cold buffer containing 50 mM Tris/HCl (pH 7.3). Non-specific binding was estimated in the presence of excess unlabeled PGE2 (10 µM). Binding data fitted to the binding model for a single class of binding sites, using nonlinear regression analysis.
(§1) HEK-293 cells stably expressing the human or feline FP receptor, or EP1, EP2, or EP4 receptors were washed with TME buffer, scraped from the bottom of the flasks, and homogenized for 30 sec using a Brinkman PT 10/35 polytron. TME buffer was added to achieve a final 40 ml volume in the centrifuge tubes (the composition of TME is 100 mM TRIS base, 20 mM MgCl2, […]; 10N HCl is added to achieve a pH of 7.4).
(§2) The cell homogenate was centrifuged at 19000 r.p.m. for 20 min at 4° C using a Beckman Ti-60 rotor. The resultant pellet was resuspended in TME buffer to give a final 1 mg/ml protein concentration, as determined by Biorad assay. Radioligand binding competition assays vs. [^3H-]17 -phenyl PGF2α (5 nM) were performed in a 100µl volume for 60 min. Binding reactions were started by adding plasma membrane fraction. The reaction was terminated by the addition of 4 ml ice-cold TRIS-HCl buffer and rapid filtration through glass fiber GF/B filters using a Brandel cell harvester. The filters were washed 3 times with ice-cold buffer and oven dried for one hour.
(§3) [^3H-] PGE2 (specific activity 180 Ci mmol) was used as the radioligand for EP receptors. [^3H] 17-phenyl PGF2α was employed for FP receptor binding studies. Binding studies employing EP1, EP2, EP4 and FP receptors were performed in duplicate in at least three separate experiments. A 200µl assay volume was used. Incubations were for 60 min at 25°C and were terminated by the addition of 4 ml of ice-cold 50 mM TRIS-HCl, followed by rapid filtration through Whatman GF/B filters and three additional 4 ml washes in a cell harvester (Brandel). Competition studies were performed using a final concentration of 5 nM [^3H]-PGE2, or 5 nM [^3H] 17-phenyl PGF2α and non-specific binding determined with 10^-5M of unlabeled PGE2, or 17-phenyl PGF2α, according to receptor subtype studied.

hEP2/Gqs5 = target: T2, hEP2/Gqs5 (Homo sapiens, UniProt P43116); assay: FLIPR calcium signal study, HEK-293(EBNA) cells; assay type: cell-based
T2 construct: expressed in transfected cells; host or cells: HEK-293(EBNA)
T2 sequence (P43116 whole entry): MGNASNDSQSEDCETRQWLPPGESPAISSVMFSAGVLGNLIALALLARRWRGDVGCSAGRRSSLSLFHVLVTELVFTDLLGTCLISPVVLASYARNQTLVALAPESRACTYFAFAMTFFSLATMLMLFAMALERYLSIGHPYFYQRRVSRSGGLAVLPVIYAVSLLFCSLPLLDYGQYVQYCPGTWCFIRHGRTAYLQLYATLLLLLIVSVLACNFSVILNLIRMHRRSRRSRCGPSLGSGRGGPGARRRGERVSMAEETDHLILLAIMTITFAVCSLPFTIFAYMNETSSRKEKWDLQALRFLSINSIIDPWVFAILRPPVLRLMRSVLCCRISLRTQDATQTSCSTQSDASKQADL
Procedure: (§4) Cells were seeded at a density of 5x10^4 cells per well in Biocoat® Poly-D-lysine-coated black-wall, clear-bottom 96-well plates (Becton-Dickinson) and allowed to attach overnight in an incubator at 37 °C. Cells were then washed two times with HBSS-HEPES buffer (Hanks Balanced Salt Solution without bicarbonate and phenol red, 20 mM HEPES, pH 7.4) using a Denley Cellwash plate washer (Labsystems). After 45 minutes of dye-loading in the dark, using the calcium-sensitive dye Fluo-4 AM at a final concentration of 2 µM, plates were washed four times with HBSS-HEPES buffer to remove excess dye leaving 100 µl in each well. Plates were re-equilibrated to 37 °C for a few minutes.
Cells were excited with an Argon laser at 488 nm, and emission was measured through a 510-570 nm bandwidth emission filter (FLIPR™, Molecular Devices, Sunnyvale, CA). […] The peak increase in fluorescence intensity was recorded for each well. […] The peak fluorescence change in each drug-containing well was then expressed relative to the controls.
Compounds were tested in a high-throughput (HTS) or concentration-response (CoRe) format. In the HTS format, forty-four compounds per plate were examined in duplicates at a concentration of 10^-5 M. To generate concentration-response curves, four compounds per plate were tested in duplicates in a concentration range between 10^-5 and 10^-11 M. The duplicate values were averaged.

EP4 receptors = target: T3, EP4 receptors (Homo sapiens, UniProt P35408); assay: Radioligand binding, EP4 receptor; settings: Table 3; read-out: BINDING (Ki, nM) HEP4
T3 construct: expressed in transfected cells; host or cells: HEK-293
T3 sequence (P35408 whole entry): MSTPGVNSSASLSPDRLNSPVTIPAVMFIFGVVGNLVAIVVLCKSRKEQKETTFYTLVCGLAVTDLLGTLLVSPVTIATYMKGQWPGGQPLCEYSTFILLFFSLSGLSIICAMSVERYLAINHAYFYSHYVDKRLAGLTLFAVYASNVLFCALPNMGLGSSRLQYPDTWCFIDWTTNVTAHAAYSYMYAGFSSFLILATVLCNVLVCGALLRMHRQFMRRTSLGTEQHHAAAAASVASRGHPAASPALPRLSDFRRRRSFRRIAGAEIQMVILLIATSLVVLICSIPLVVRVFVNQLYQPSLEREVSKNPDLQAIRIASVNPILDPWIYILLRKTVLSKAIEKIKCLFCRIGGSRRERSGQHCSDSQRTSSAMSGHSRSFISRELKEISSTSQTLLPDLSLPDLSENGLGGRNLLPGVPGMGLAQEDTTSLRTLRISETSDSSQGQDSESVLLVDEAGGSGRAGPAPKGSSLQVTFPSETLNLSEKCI
Procedure: as §1, §2, §3

hEP3A/Gqi5 = target: T4, hEP3A/Gqi5 (Homo sapiens, UniProt P43115); assay: FLIPR calcium signal study, HEK-293(EBNA) cells; assay type: cell-based
T4 construct: expressed in transfected cells; host or cells: HEK-293(EBNA)
T4 sequence (P43115 1-390): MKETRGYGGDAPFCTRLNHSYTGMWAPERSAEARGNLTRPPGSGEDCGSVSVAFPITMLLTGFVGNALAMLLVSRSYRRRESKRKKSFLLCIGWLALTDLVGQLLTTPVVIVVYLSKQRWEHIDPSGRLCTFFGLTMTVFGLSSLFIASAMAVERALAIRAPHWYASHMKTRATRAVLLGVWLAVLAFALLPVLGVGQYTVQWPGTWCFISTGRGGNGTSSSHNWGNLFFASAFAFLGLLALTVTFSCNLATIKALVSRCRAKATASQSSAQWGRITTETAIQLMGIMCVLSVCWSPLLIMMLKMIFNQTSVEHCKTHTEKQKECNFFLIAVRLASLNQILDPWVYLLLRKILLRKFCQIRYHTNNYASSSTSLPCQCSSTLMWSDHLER
Procedure: (§5) HEK-293(EBNA) cells, stably expressing one type or subtype of recombinant human prostaglandin receptors (prostaglandin receptors expressed: hDP/Gqs5; hEP1; hEP2/Gqs5; hEP3A/Gqi5; hEP4/Gqs5; hFP; hIP; hTP), were cultured in 100 mm culture dishes in high-glucose DMEM medium containing 10% fetal bovine serum, 2 mM I-glutamine, 250 µg/ml geneticin (G418) and 200 µg/ml hygromycin B as selection markers, and 100 units/ml penicillin G, 100 µg/ml streptomycin and 0.25 µg/ml amphotericin B.
as §4
(§6) Cells were excited with an Argon laser at 488 nm, and emission was measured through a 510-570 nm bandwidth emission filter (FLIPR™, Molecular Devices, Sunnyvale, CA). Drug solution was added in a 50 µl volume to each well to give the desired final concentration. The peak increase in fluorescence intensity was recorded for each well. On each plate, four wells each served as negative (HBSS-HEPES buffer) and positive controls (standard agonists: BW245C (hDP); PGE2 (hEP1; hEP2/Gqs5; hEP3A/Gqi5; hEP4/Gqs5); PGF2α (hFP); carbacyclin (hIP); U-46619 (hTP), depending on receptor). The peak fluorescence change in each drug-containing well was then expressed relative to the controls.
(§7) Compounds were tested in a high-throughput (HTS) or concentration-response (CoRe) format. In the HTS format, forty-four compounds per plate were examined in duplicates at a concentration of 10^-5 M. To generate concentration-response curves, four compounds per plate were tested in duplicates in a concentration range between 10^-5 and 10^-11 M. The duplicate values were averaged. In either, HTS or CoRe format each compound was tested on at least 3 separate plates using cells from different passages to give an n ≥ 3.

HEP3 = target: T5, HEP3 (Homo sapiens, UniProt P43115); assay: Radioligand binding, EP3 receptor; settings: Table 3; NA means not active
T5 sequence (P43115 1-390): T4 sequence (P43115 1-390)

hTP = target: T6, hTP (Homo sapiens, UniProt P21731); assay: FLIPR calcium signal study, HEK-293(EBNA) cells; assay type: cell-based; settings: Table 1; NA means not active; read-out: FUNCTIONAL (Ca2+, EC50, nM) HTP
T6 construct: expressed in transfected cells; host or cells: HEK-293(EBNA)
T6 sequence (P21731 1-343): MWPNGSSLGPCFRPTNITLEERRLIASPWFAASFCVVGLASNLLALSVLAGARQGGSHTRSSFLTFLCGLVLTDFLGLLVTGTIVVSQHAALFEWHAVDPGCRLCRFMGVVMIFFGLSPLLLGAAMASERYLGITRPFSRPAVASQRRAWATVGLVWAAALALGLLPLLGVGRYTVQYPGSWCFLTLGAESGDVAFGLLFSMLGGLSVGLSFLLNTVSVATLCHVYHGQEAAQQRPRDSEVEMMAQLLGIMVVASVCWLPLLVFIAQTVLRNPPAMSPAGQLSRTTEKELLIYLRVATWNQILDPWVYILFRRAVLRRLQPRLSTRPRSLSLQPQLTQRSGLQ
Procedure: as §5, §4, §6, §7

[1] = Table 2, unit inferred, read-out: BINDING HEP2
[2] = Table 2, unit inferred, read-out: FUNCTIONAL HEP2
[3] = Table 3, read-out: BINDING (Ki, nM) HEP2
[4] = Table 3, read-out: FUNCTIONAL (Ca2+, EC50, nM) HEP2
[5] = Table 3, read-out: FUNCTIONAL (Ca2+, EC50, nM) HEP3A
[6] = Table 1, Ca2+ signal, NA means not active, read-out: FUNCTIONAL (Ca2+, EC50, nM) HEP 2

T1 sequence (P43116 whole entry): as the sequence (P43116 whole entry) above

SMILES	Ki (human EP2 receptors; [1])	EC50 (hEP2/Gqs5; [2])	EC50 (hEP2/Gqs5; [6])	other results
CCCCC(O)Cc1ccc([C@H]2CCC(=O)[C@@H]2CCCCCCC(=O)OC)cc1 (stereo partly shown)	4600 nM	15000 nM		
CCCCC(O)Cc1ccc([C@H]2CCC(=O)[C@@H]2CCCCCCC(=O)O)cc1 (stereo partly shown)	700 nM	343 nM		
CCCCCC(O)c1ccc([C@H]2CC[C@@H](F)[C@@H]2CCCCCCC(=O)O)cc1 (stereo partly shown)	600 nM	15000 nM		
CCCCCC(O)c1ccc([C@H]2CC[C@@H](Cl)[C@@H]2CCCCCCC(=O)O)cc1 (stereo partly shown)	1900 nM	15000 nM		
CCCCC(O)c1ccc([C@H]2CCC(=O)[C@@H]2CCCCCCC(=O)O)cc1 (stereo partly shown)	1400 nM			EC50 (hEP2/Gqs5): 1410 nM
CCCCC(O)c1ccc([C@H]2CCC(=O)[C@@H]2CCCCCCC(=O)OC)cc1 (stereo partly shown)	15000 nM	15000 nM		
CCCCCC(O)c1ccc([C@H]2CCC(=O)[C@@H]2CCCCCCC(=O)OC)s1 (stereo partly shown)	7100 nM			EC50 (hEP2/Gqs5): 7100 nM
CCCCCC(O)c1ccc([C@H]2CCC(=O)[C@@H]2CCCCCCC(=O)O)s1 (stereo partly shown)	600 nM			EC50 (hEP2/Gqs5): 769 nM
CCCCCC(O)c1ccc([C@H]2CCC=C2CCCCCCC(=O)O)cc1 (stereo partly shown)	2810 nM	4880 nM		
CCCCCC(O)c1ccc([C@H]2CCC(=O)[C@@H]2CCCCCCC(=O)OC)cc1 (stereo partly shown)				Ki (human EP2 receptors; [3]): 4680 nM; EC50 (hEP2/Gqs5; [4]): 2160 nM; Ki (EP4 receptors): 15000 nM; EC50 (hEP3A/Gqi5; [5]): 3090 nM
CCCCCC(O)c1ccc([C@H]2CCC(=O)[C@@H]2CCCCCCC(=O)O)cc1 (stereo partly shown)				Ki (human EP2 receptors; [3]): 871 nM; EC50 (hEP2/Gqs5; [4]): 284 nM; Ki (EP4 receptors): 15000 nM; EC50 (hEP3A/Gqi5; [5]): 90 nM; Ki (HEP3): 5200 nM
CCCC1(C(O)c2cccc([C@H]3CCC(=O)[C@@H]3C/C=C\CCCC(=O)OC)c2)CCC1 (stereo partly shown) [Entry 1]				EC50 (hTP): > 10000 nM
CCCC1(C(O)c2cccc([C@H]3CCC(=O)[C@@H]3C/C=C\CCCC(=O)O)c2)CCC1 (stereo partly shown) [Entry 2]			2660 nM	
CCCC1(C(O)c2cccc([C@H]3CCC(=O)[C@@H]3CCCCCCC(=O)O)c2)CCC1 (stereo partly shown) [Entry 4]			3410 nM	EC50 (hEP3A/Gqi5; Table 1, NA means not active, read-out: FUNCTIONAL (Ca2+, EC50, nM) HEP 3A): 3830 nM
CC(C)(C)c1ccc([C@H]2CCC(=O)[C@@H]2C/C=C\CCCC(=O)O)cc1 [Entry 8]			1050 nM	
COC(=O)CCC/C=C\C[C@H]1C(=O)CC[C@@H]1c1ccc(C(O)C2CCCCC2)cc1 (stereo partly shown) [Entry 10]			> 10000 nM	
COC(=O)CCCCCC[C@H]1C(=O)CC[C@@H]1c1ccc(C(O)C2CCCCC2)cc1 (stereo partly shown) [Entry 12]			> 10000 nM	EC50 (hTP): > 10000 nM
O=C(O)CCCCCC[C@H]1C(=O)CC[C@@H]1c1ccc(C(O)C2CCCCC2)cc1 (stereo partly shown) [Entry 13]			2050 nM	
O=C(O)CCCCCC[C@H]1C(=O)CC[C@@H]1c1ccc(C2(O)CCC2)cc1 [Entry 17]			> 10000 nM	
O=C(O)CCC/C=C\C[C@H]1[C@H](Cl)CC[C@@H]1c1ccc(C(O)C2CCCCC2)cc1 (stereo partly shown) [Entry 19]			2100 nM	
O=C(O)CCCCCC[C@H]1[C@H](Cl)CC[C@@H]1c1ccc(C(O)C2CCCCC2)cc1 (stereo partly shown) [Entry 21]			> 10000 nM	EC50 (hTP): > 10000 nM
CCCCCC(O)c1ccc([C@H]2CCC(=O)[C@@H]2C/C=C\CCCC(=O)OC)cc1 (stereo partly shown) [drawing 96]	15000 nM	15000 nM		
CCCCCC(O)c1ccc([C@H]2CCC(=O)[C@@H]2C/C=C\CCCC(=O)O)cc1 (stereo partly shown) [drawing 97]	700 nM	1010 nM		
CCCCCC(O)c1ccc([C@H]2CCC(=O)[C@@H]2C/C=C\CCCC(=O)OC)cc1 (stereo partly shown) [drawing 115]				Ki (EP4 receptors): 15000 nM; EC50 (hEP3A/Gqi5; [5]): 15000 nM
CCCCCC(O)c1ccc([C@H]2CCC(=O)[C@@H]2C/C=C\CCCC(=O)O)cc1 (stereo partly shown) [drawing 116]				Ki (EP4 receptors): 15000 nM; EC50 (hEP3A/Gqi5; [5]): 552 nM; Ki (HEP3): 15000 nM
